Data reported in patent US10689318B2, “Bisphenol having fluorene skeleton, method for producing same, polyarylate resin, (meth)acrylate compound and epoxy resin which are derived from the bisphenol” (TAOKA CHEMICAL CO., LTD., priority 2016, dated 2020).

Assays:
Assay type in all cases: physicochemical
[1] = Refractive index and Abbe number (Abbe refractometer, NMP solutions extrapolated to 100% by weight); settings: 20° C.; for Refractive index: 589 nm; for Abbe number: calculated from extrapolated refractive indices at 486, 589, 656 nm
Description: [5] Refractive Index and Abbe Number
The refractive index of each of the bisphenol, the polyarylate resin, the (meth)acrylate compound and the epoxy resin is a value determined using the following method and conditions. In addition, the Abbe number of each of the (meth)acrylate compound and the epoxy resin was calculated on the basis of the refractive index measured using the following method and conditions. • Apparatus: Abbe refractometer (“multiwavelength Abbe refractometer DR-2M” manufactured by ATAGO CO., LTD.) • Measurement wavelength: 589 nm (refractive index), 486, 589, 656 nm (Abbe number) • Measurement temperature: 20° C. • Refractive index of bisphenol: The bisphenol was dissolved in N-methyl-2-pyrrolidone (hereinafter, sometimes referred to as NMP) to prepare 5 wt %, 10 wt % and 15 wt % solutions, and the refractive index was measured for each of the solutions using the above-mentioned apparatus and conditions. Next, an approximate curve was derived from the obtained three measured values, and a value obtained by extrapolating the curve at 100% by weight was defined as a refractive index of each bisphenol. • Refractive index of polyarylate resin: A polyarylate resin powder was dissolved in NMP to prepare 1 wt %, 3 wt % and 5 wt % solutions, and the refractive index was measured for each of the solutions using the above-mentioned apparatus and conditions. Next, an approximate curve was derived from the obtained three measured values, and a value obtained by extrapolating the curve at 100% by weight was defined as a refractive index of each polyarylate resin. • Refractive index and Abbe number of (meth)acrylate compound: Each (meth)acrylate compound was dissolved in NMP to prepare a 5 wt %, 10 wt % and 15 wt % solutions (for Comparative Examples 4 and 5, 1 wt %, 3 wt % and 5 wt % solutions were prepared because the (meth)acrylate compound was hardly soluble in an organic solvent), and the refractive index at each wavelength was measured for each of the solutions using the above-mentioned apparatus and conditions. Next, an approximate curve was derived from the obtained three measured values, a value obtained by extrapolating the curve at 100% by weight was defined as a refractive index of each (meth)acrylate compound at each wavelength, and the Abbe number was calculated on the basis of the refractive index at each wavelength, which was determined as described above. • Refractive index and Abbe number of epoxy resin: Each epoxy resin was dissolved in NMP to prepare 5 wt %, 10 wt % and 15 wt % solutions, and the refractive index at each wavelength was measured for each of the solutions using the above-mentioned apparatus and conditions. Next, an approximate curve was derived from the obtained three measured values, a value obtained by extrapolating the curve at 100% by weight was defined as a refractive index of each epoxy resin at each wavelength, and the Abbe number was calculated on the basis of the refractive index at each wavelength, which was determined as described above.

[2] = Solubility test of (meth)acrylate compound; set-up: key: ◯: The sample is dissolved at room temperature.; Δ: The sample is dissolved when heated, and crystals are not precipitated even when the sample is cooled.; x: The sample is dissolved when heated, but crystals are precipitated when the sample is cooled, or the sample is not dissolved even when heated; settings: for Solubility (30 mass % concentration) Monofunctional acrylate OPPEA: 30 parts by weight acrylate + 70 parts 2-phenylphenoxyethyl acrylate; for Solubility (30 mass % concentration) Solvent EA: 30 parts by weight acrylate + 70 parts ethyl acetate; for Solubility (30 mass % concentration) Monofunctional acrylate POB-A: 30 parts by weight acrylate + 70 parts m-phenoxybenzyl acrylate; for Solubility (30 mass % concentration) Solvent MEK: 30 parts by weight acrylate + 70 parts methyl ethyl ketone; for Solubility (30 mass % concentration) Solvent PGME: 30 parts by weight acrylate + 70 parts propylene glycol monomethyl ether; for Solubility (30 mass % concentration) Solvent PGMEA: 30 parts by weight acrylate + 70 parts propylene glycol monomethyl ether acetate
Description: (9-2) Solubility Test of (Meth)Acrylate Compound
30 parts by weight of the (meth)acrylate compound and 70 parts by weight of each of the diluents (solvent or monofunctional acrylate) shown in Table 3 were mixed, and solubility was evaluated on the basis of the following evaluation criteria.
◯: The sample is dissolved at room temperature.
Δ: The sample is dissolved when heated, and crystals are not precipitated even when the sample is cooled.
x: The sample is dissolved when heated, but crystals are precipitated when the sample is cooled, or the sample is not dissolved even when heated.

[3] = Glass transition temperature (DSC); settings: (meth)acrylate compound; DSC 10° C./min
Description: [4] Melting Point (Melt Endothermic Maximum Temperature in Differential Scanning Calorimetry (DSC)) and Glass Transition Temperature
5 mg of a sample was precisely weighed, and taken in an aluminum pan, measurement was performed under the following operation conditions with aluminum oxide as a control using a differential scanning calorimeter (DSC 7020 manufactured by SII NanoTechnology Inc.), and the detected melt endothermic maximum temperature was defined as a melting point. For a sample (amorphous material, resin or the like) in which a melt endothermic peak was not detected, the intersection of tangent lines at an inflection point was defined as a glass transition temperature (Tg).
• Temperature elevation rate: 10° C./min (for bisphenol and (meth)acrylate compound) and 20° C./min (for polyarylate resin) • Measurement range: 30 to 250° C. (for bisphenol), 150 to 250° C. (for polyarylate resin) and −30 to 350° C. (for (meth)acrylate compound) • atmosphere: Open, nitrogen: 40 ml/min

[4] = 5% weight loss temperature (thermogravimetric instrument); settings: bisphenol; 10° C./min from room temperature to 500° C., nitrogen gas stream
Description: [6] 5% Weight Loss Temperature
Using a thermogravimetric instrument (TGA-50 from Shimadzu Corporation), measurement was performed with the temperature elevated at a rate of 10° C./min from room temperature to 500° C. under a nitrogen gas stream.

[5] = (meth)acrylate compound, 5, 10, 15 wt % NMP solutions (Comparative Examples 4 and 5: 1, 3, 5 wt %) extrapolated to 100% by weight
[6] = bisphenol, 5, 10, 15 wt % NMP solutions extrapolated to 100% by weight

Row | SMILES | Refractive index [1, 5] | Abbe number ([1]; (meth)acrylate compound) | Solubility (30 mass % concentration) Monofunctional acrylate OPPEA [2] | Solubility (30 mass % concentration) Solvent EA [2] | Solubility (30 mass % concentration) Monofunctional acrylate POB-A [2] | Solubility (30 mass % concentration) Solvent MEK [2] | Solubility (30 mass % concentration) Solvent PGME [2] | Solubility (30 mass % concentration) Solvent PGMEA [2] | Tg [3] | 5% weight loss temperature [4] | Refractive index [1, 6]
1 | C=CC(=O)Oc1c(Cc2ccccc2)cc(C2(c3cc(Cc4ccccc4)c(OC(=O)C=C)c(-c4ccccc4)c3)c3ccccc3-c3ccccc32)cc1-c1ccccc1 [Example 5] | 1.633 | 19.7 | ∘ | ∘ | ∘ | ∘ | ∘ | ∘ | 32.4 °C |  | 
2 | C=CC(=O)Oc1ccc(C2(c3ccc(OC(=O)C=C)c(C)c3)c3ccccc3-c3ccccc32)cc1C [Comparative Example 4] | 1.606 | 25.5 | x | x | x | x | x | x |  |  | 
3 | C=CC(=O)Oc1ccc(C2(c3ccc(OC(=O)C=C)c(-c4ccccc4)c3)c3ccccc3-c3ccccc32)cc1-c1ccccc1 [Comparative Example 5] | 1.644 | 21.4 | x | x | x | x | x | x |  |  | 
4 | Oc1ccc(C2(c3ccc(O)c(-c4ccccc4)c3)c3ccccc3-c3ccccc32)cc1-c1ccccc1 [Comparative Example 1] |  |  |  |  |  |  |  |  |  | 306 °C | 1.67
5 | OCCOc1ccc(C2(c3ccc(OCCO)c(-c4ccccc4)c3)c3ccccc3-c3ccccc32)cc1-c1ccccc1 [Reference Example 1] |  |  |  |  |  |  |  |  |  | 363 °C | 1.65
6 | C=CC(=O)Oc1ccc2ccccc2c1-c1c(OC(=O)C=C)ccc2ccccc12 [Reference Example 2] | 1.632 | 19.0 | x | ∘ | x | ∘ | x | x |  |  | 
7 | Oc1c(Cc2ccccc2)cc(C2(c3cc(Cc4ccccc4)c(O)c(-c4ccccc4)c3)c3ccccc3-c3ccccc32)cc1-c1ccccc1 [Example 1] |  |  |  |  |  |  |  |  |  | 357 °C | 1.67
8 | C=CC(=O)OCCOc1ccc(C2(c3ccc(OCCOC(=O)C=C)c(C)c3)c3ccccc3-c3ccccc32)cc1C [Comparative Example 6] | 1.591 | 23.1 | ∘ | ∘ | ∘ | ∘ | x | ∘ | 0.0 °C |  | 
